Measurements: patent US20090221642A1, “MUSCARINIC RECEPTOR AGONISTS, COMPOSITIONS, METHODS OF TREATMENT THEREOF, AND PROCESSES FOR PREPARATION THEREOF-176” (AstraZeneca AB, priority 2008, published 2009)
Like-named read-outs stand apart in the source and are kept apart here.

Key:
[1] = molecular target: T1, hM1 (human Muscarinic receptor subtype 1) (Homo sapiens, UniProt P11229); experiment: Human M1 calcium mobilization FLIPR assay; assay type: cell-based; conditions: hM1 expressed in CHO cells, intracellular Ca2+ release
T1 construct: expressed in transfected cells; host or cells: CHO cells (Chinese hamster ovary cells, ATCC)
T1 sequence (P11229 1-460): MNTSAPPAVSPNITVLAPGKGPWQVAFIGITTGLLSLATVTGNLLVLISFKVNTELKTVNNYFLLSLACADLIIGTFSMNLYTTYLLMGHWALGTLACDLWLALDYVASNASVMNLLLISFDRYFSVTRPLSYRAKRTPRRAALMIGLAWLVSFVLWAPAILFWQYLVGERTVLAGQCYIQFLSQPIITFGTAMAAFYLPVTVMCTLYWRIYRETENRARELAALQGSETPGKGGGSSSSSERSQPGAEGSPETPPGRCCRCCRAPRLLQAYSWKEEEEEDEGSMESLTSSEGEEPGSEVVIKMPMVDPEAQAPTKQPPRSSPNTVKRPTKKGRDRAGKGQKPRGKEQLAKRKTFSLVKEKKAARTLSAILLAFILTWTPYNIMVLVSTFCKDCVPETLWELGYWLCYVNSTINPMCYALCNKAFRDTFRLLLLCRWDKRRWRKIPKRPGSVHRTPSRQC
Method in brief: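 CHO cells expressing the receptor, dye-loaded at 37°C for 60 min, read on FLIPR at 510-570 nm. Agonism taken from compound-induced Ca2+ rise (max RFU for M1); M3/M5 inhibition measured against 2 nM acetylcholine using max minus min RFU. 10-point threefold dilutions, sigmoidal fits.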

[2] = molecular target: T2, cloned human M4 receptor (human Muscarinic receptor subtype 4) (Homo sapiens, UniProt P08173); experiment: hM4 receptor GTPγS binding; assay type: biochemical; conditions: CHO cell membranes expressing hM4, [35S]GTPγS binding
T2 construct: purchased Perkin-Elmer RBHM4M; host or cells: Chinese hamster ovary cells (CHO) membranes
T2 sequence (P08173 1-479): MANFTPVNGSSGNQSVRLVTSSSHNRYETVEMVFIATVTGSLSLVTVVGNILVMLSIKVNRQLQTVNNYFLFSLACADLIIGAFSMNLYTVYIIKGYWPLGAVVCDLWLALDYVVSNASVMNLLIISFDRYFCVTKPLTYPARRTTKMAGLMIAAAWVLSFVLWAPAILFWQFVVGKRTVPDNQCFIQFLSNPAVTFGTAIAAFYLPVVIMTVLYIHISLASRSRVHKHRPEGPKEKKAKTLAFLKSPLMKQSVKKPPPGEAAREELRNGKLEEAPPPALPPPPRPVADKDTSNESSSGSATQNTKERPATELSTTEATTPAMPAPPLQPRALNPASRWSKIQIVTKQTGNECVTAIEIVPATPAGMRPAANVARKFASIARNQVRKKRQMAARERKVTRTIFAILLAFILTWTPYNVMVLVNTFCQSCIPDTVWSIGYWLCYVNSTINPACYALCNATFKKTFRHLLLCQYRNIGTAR
Method in brief: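 Membranes from CHO cells expressing cloned human M4, with SPA beads, 20 µM GDP and 0.4 nM [35S]GTPγS in HEPES buffer pH 7.4, incubated 60 min at room temperature. Antagonism measured as reversal of 10 µM acetylcholine stimulation; 10-point, threefold dilution curves fitted sigmoidally to give EC50, IC50 and Emax.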

Row | SMILES | EC50 ([1]; hM1 EC50 (nM)) | EC50 ([2]; hM4 EC50 (nM)) | EC50 ([1]; read-out: hM1 EC50) | EC50 ([2]; read-out: hM4 EC50)
1 | COC(=O)N1CCC(C)(N2CCC(N3C(=O)Cc4cc(F)c(C)cc43)CC2)C1 (single isomer, unassigned) [Example 83, methyl 3-(4-(5-fluoro-6-methyl-2-oxoindolin-1-yl)piperidin-1-yl)-3-methylpyrrolidine-1-carboxylate] | 26.1 nM | 11300 nM |  | 
2 | COC(=O)N1CCC(C)(N2CCC(N3C(=O)Cc4cc(F)c(C)cc43)CC2)C1 (single isomer, unassigned) [Example 84, methyl 3-(4-(5-fluoro-6-methyl-2-oxoindolin-1-yl)piperidin-1-yl)-3-methylpyrrolidine-1-carboxylate] | 7.7 nM | 2540 nM |  | 
3 | CCOC(=O)N1CCC(C)(N2CCC(n3c(=O)[nH]c4ccccc43)CC2)C1 (stereo not drawn) [Example 1, ethyl 3-methyl-3-(4-(2-oxo-2,3-dihydro-1H-benzo[d]imidazol-1-yl)piperidin-1-yl)pyrrolidine-1-carboxylate] |  |  | 4.2 nM | 1700 nM
4 | CCNC(=O)N1CCC(C)(N2CCC(n3c(=O)[nH]c4ccccc43)CC2)C1 (stereo not drawn) [Example 5, N-ethyl-3-methyl-3-(4-(2-oxo-2,3-dihydro-1H-benzo[d]imidazol-1-yl)piperidin-1-yl)pyrrolidine-1-carboxamide] |  |  | 43.3 nM | > 16000 nM
5 | COC(=O)N1CCC(C)(N2CCC(n3c(=O)[nH]c4cc(F)ccc43)CC2)C1 (stereo not drawn) [Example 8, methyl 3-(4-(5-fluoro-2-oxo-2,3-dihydro-1H-benzo[d]imidazol-1-yl)piperidin-1-yl)-3-methylpyrrolidine-1-carboxylate] |  |  | 18.3 nM | 5210 nM
6 | CC1(N2CCC(n3c(=O)[nH]c4cc(F)ccc43)CC2)CCN(C(=O)OCCF)C1 (stereo not drawn) [Example 10, 2-fluoroethyl 3-(4-(5-fluoro-2-oxo-2,3-dihydro-1H-benzo[d]imidazol-1-yl)piperidin-1-yl)-3-methylpyrrolidine-1-carboxylate] |  |  | 26.3 nM | 5170 nM
7 | C#CCOC(=O)N1CCC(C)(N2CCC(n3c(=O)[nH]c4cc(F)ccc43)CC2)C1 (stereo not drawn) [Example 11, prop-2-ynyl 3-(4-(5-fluoro-2-oxo-2,3-dihydro-1H-benzo[d]imidazol-1-yl)piperidin-1-yl)-3-methylpyrrolidine-1-carboxylate] |  |  | 2 nM | 714 nM
8 | CCOC(=O)N1CCC(C)(N2CCC(n3c(=O)[nH]c4ccc(C)cc43)CC2)C1 (stereo not drawn) [Example 16, ethyl 3-methyl-3-(4-(6-methyl-2-oxo-2,3-dihydro-1H-benzo[d]imidazol-1-yl)piperidin-1-yl)pyrrolidine-1-carboxylate] |  |  | 8.1 nM | 1700 nM
9 | COC(=O)N1CCC(C)(N2CCC(n3c(=O)[nH]c4ccc(C)cc43)CC2)C1 (stereo not drawn) [Example 17, methyl 3-methyl-3-(4-(6-methyl-2-oxo-2,3-dihydro-1H-benzo[d]imidazol-1-yl)piperidin-1-yl)pyrrolidine-1-carboxylate] |  |  | 9.7 nM | 3150 nM
